In patent US10399972B2, “Tricyclic compounds as inhibitors of mutant IDH enzymes” (Merck Sharp & Dohme Corp., priority 2015, dated 2019):

Each compound was assayed against R132H mutant IDH1 enzyme (Homo sapiens (Human), UniProt O75874, R132H) (assay: R132H IDH1 Enzymatic Assay). Conditions: 1.5 nM final, 30 min preincubation, 60 min reaction, Kinase-GLO luminescence.
Type: biochemical
Protocol: R132H IDH1 Enzymatic Assay
Each test compound (10 mM stock in DMSO) is diluted in DMSO to make a 10-point, 3-fold dilution series. 125 nL of each dilution or DMSO alone is dispensed to a 384-well Greiner Lumitrac 200 assay plate using an Echo® Liquid Handler. To each well of the plate is added 20 uL of enzyme in assay buffer or assay buffer alone. Assay buffer consists of 50 mM sodium phosphate, pH 7.0, 50 mM magnesium chloride, 50 mM sodium chloride, and 0.01% (w/v) bovine serum albumin. When present, the R132H mutant IDH1 enzyme is at a working concentration of 1.875 nM (final concentration in assay of 1.5 nM). The assay plate is allowed to incubate for 30 minutes at room temperature and 5 uL of 5× substrate mixture (2.5 uM nicotinamide adenine dinucleotide phosphate, 100 uM adenosine diphosphate, 7.5 mM glyceraldehyde-3-phosphate, 7.5 ug/mL of spinach glyceraldehyde-3-phosphate dehydrogenase, 25 nM phosphoglycerate kinase, and 5 mM alpha-ketoglutarate in assay buffer) is added to all wells. The reaction plate is incubated for 60 minutes followed by addition of 25 uL of Promega Kinase-GLO reagent to all wells and 10-minute incubation.
Luminescence is measured using a PerkinElmer Envision plate reader. The percent activity of each dilution is determined as the ratio of background corrected signal to the background corrected signal of wells receiving only DMSO. IC50 values are determined by fitting percent activity data to a four-parameter logistic dose response equation. The IC50 values of the exemplified compounds are included in Table 8.

Sequence of R132H mutant IDH1 enzyme (O75874 whole entry R132H): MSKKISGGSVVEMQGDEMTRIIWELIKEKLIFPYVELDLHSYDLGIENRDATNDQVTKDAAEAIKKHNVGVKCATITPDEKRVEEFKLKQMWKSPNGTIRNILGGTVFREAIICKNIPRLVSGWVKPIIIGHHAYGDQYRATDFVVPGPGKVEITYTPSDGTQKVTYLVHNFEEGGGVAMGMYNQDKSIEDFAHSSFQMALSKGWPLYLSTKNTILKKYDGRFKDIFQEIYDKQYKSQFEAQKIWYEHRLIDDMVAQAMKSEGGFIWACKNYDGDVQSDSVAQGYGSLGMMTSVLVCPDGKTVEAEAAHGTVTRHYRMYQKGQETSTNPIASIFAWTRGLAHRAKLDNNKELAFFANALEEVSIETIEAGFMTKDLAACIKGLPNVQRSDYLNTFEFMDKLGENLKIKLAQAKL

How did the IC50 turn out when O=C(C1CCN(CC(F)(F)F)CC1)N1Cc2cc(F)cnc2Nc2cc(F)c(N3CC4(CCCOC4)C3)cc21 [Example 21, (3,9-difluoro-8-(6-oxa-2-azaspiro[3.5]nonan-2-yl)-5,11-dihydro-6H-benzo[b]pyrido[2,3-e][1,4]diazepin-6-yl)(1-(2,2,2-trifluoroethyl)piperidin-4-yl)methanone] was run?
The IC50 was 4.5 nM.

How did the IC50 turn out when O=C(C1CCN(CC(F)(F)F)CC1)N1Cc2cc(F)cnc2Nc2cc(F)c(N3[C@@H]4CO[C@H]5[C@@H]4OC[C@H]53)cc21 [Example 22, (3,9-difluoro-8-((3R,3aR,6R,6aR)-hexahydro-3,6-epiminofuro[3,2-b]furan-7-yl)-5,11-dihydro-6H-benzo[b]pyrido[2,3-e][1,4]diazepin-6-yl)(1-(2,2,2-trifluoroethyl)piperidin-4-yl)methanone] was run?
The IC50 was 4.2 nM.

With C[C@H]1CN(c2cc3c(cc2F)Nc2ncc(F)cc2CN3C(=O)C2CCN(CC(F)(F)F)CC2)[C@@H](C)CO1 [Example 23, (8-((2S,5S)-2,5-dimethylmorpholino)-3,9-difluoro-5,11-dihydro-6H-benzo[b]pyrido[2,3-e][1,4]diazepin-6-yl)(1-(2,2,2-trifluoroethyl)piperidin-4-yl)methanone] as the compound, how does the IC50 read?
Its IC50 is 23 nM.

CC(C)O[C@H]1CC[C@H](C(=O)N2Cc3cc(F)cnc3Nc3cc(F)c(N4C[C@@H]5C[C@H]4CO5)cc32)CC1 [Example 24, {3,9-difluoro-8-[(1S,4S)-2-oxa-5-azabicyclo[2.2.1]hept-5-yl]-5,11-dihydro-6H-pyrido[2,3-b][1,5]benzodiazepin-6-yl}[trans-4-(propan-2-yloxy)cyclohexyl]methanone] was tested. Which IC50 did it give?
Its IC50 is 5.6 nM.

With CC(C)O[C@H]1CC[C@H](C(=O)N2Cc3cc(F)cnc3Nc3cc(F)c(N4CC5(CCCOC5)C4)cc32)CC1 [Example 25, [3,9-difluoro-8-(6-oxa-2-azaspiro[3.5]non-2-yl)-5,11-dihydro-6H-pyrido[2,3-b][1,5]benzodiazepin-6-yl][trans-4-(propan-2-yloxy)cyclohexyl]methanone] as the compound, how does the IC50 read?
Its IC50 is 7.8 nM.

CC(C)O[C@H]1CC[C@H](C(=O)N2Cc3cc(F)cnc3Nc3cc(F)c(N4C5CCC4COC5)cc32)CC1 [Example 26, [3,9-difluoro-8-(3-oxa-8-azabicyclo[3.2.1]oct-8-yl)-5,11-dihydro-6H-pyrido[2,3-b][1,5]benzodiazepin-6-yl][trans-4-(propan-2-yloxy)cyclohexyl]methanone] was tested. Which IC50 did it give?
The IC50 was 13.8 nM.

For O=C(C1CCN(CC(F)(F)F)CC1)N1Cc2cccnc2Nc2cc(F)c(N3C[C@@H]4C[C@H]3CO4)cc21 [Example 27, (8-((1S,4S)-2-oxa-5-azabicyclo[2.2.1]heptan-5-yl)-9-fluoro-5,11-dihydro-6H-benzo[b]pyrido[2,3-e][1,4]diazepin-6-yl)(1-(2,2,2-trifluoroethyl)piperidin-4-yl)methanone], which IC50 is on record?
Its IC50 is 27.5 nM.

How did the IC50 turn out when O=C(C1CCN(CC(F)(F)F)CC1)N1Cc2cccnc2Nc2cc(F)c(N3[C@@H]4CO[C@H]5[C@@H]4OC[C@H]53)cc21 [Example 28, (9-fluoro-8-((3R,3aR,6R,6aR)-hexahydro-3,6-epiminofuro[3,2-b]furan-7-yl)-5,11-dihydro-6H-benzo[b]pyrido[2,3-e][1,4]diazepin-6-yl)(1-(2,2,2-trifluoroethyl)piperidin-4-yl)methanone] was run?
Its IC50 is 27.6 nM.

Which IC50 does the source give for O=C(C1CCN(CC(F)(F)F)CC1)N1Cc2cc(F)cnc2Nc2cc(F)c(N3CC4CCC3CO4)cc21 (centres unmarked) [Example 29, (8-(2-oxa-5-azabicyclo[2.2.2]octan-5-yl)-3,9-difluoro-5,11-dihydro-6H-benzo[b]pyrido[2,3-e][1,4]diazepin-6-yl)(1-(2,2,2-trifluoroethyl)piperidin-4-yl)methanone] here?
Its IC50 is 9.9 nM.

CO[C@H]1C[C@H]2CC[C@@H](C1)N2c1cc2c(cc1F)Nc1ncc(F)cc1CN2C(=O)C1CCN(CC(F)(F)F)CC1 [Example 30, (3,9-difluoro-8-((1R,3r,5S)-3-methoxy-8-azabicyclo[3.2.1]octan-8-yl)-5,11-dihydro-6H-benzo[b]pyrido[2,3-e][1,4]diazepin-6-yl)(1-(2,2,2-trifluoroethyl)piperidin-4-yl)methanone] was tested. Which IC50 did it give?
Its IC50 is 14.1 nM.

How did the IC50 turn out when O=C(C1CCN(CC(F)(F)F)CC1)N1Cc2cc(F)cnc2Nc2cc(F)c(N3C[C@H]4CC[C@@H]3CO4)cc21 [Example 31, (8-((1R,4R)-2-oxa-5-azabicyclo[2.2.2]octan-5-yl)-3,9-difluoro-5,11-dihydro-6H-benzo[b]pyrido[2,3-e][1,4]diazepin-6-yl)(1-(2,2,2-trifluoroethyl)piperidin-4-yl)methanone] was run?
Its IC50 is 18 nM.

For O=C(C1CCN(CC(F)(F)F)CC1)N1Cc2cc(F)cnc2Nc2cc(F)c(N3C[C@@H]4CC[C@H]3CO4)cc21 [Example 32, (8-((1S,4S)-2-oxa-5-azabicyclo[2.2.2]octan-5-yl)-3,9-difluoro-5,11-dihydro-6H-benzo[b]pyrido[2,3-e][1,4]diazepin-6-yl)(1-(2,2,2-trifluoroethyl)piperidin-4-yl)methanone], which IC50 is on record?
The IC50 was 18.1 nM.

CC(C)O[C@H]1CC[C@H](C(=O)N2Cc3cc(F)cnc3Nc3ccc([C@H]4COCCO4)cc32)OC1 [Example 33, (8-((S)-1,4-Dioxan-2-yl)-3-fluoro-5,11-dihydro-6H-benzo[b]pyrido[2,3-e][1,4]diazepin-6-yl)((2R,5S)-5-isopropoxytetrahydro-2H-pyran-2-yl)methanone] was tested. Which IC50 did it give?
The IC50 was 21.8 nM.

For CC(C)O[C@H]1CC[C@H](C(=O)N2Cc3cc(F)cnc3Nc3ccc([C@@H]4COCCO4)cc32)OC1 [Example 34, (8-((R)-1,4-dioxan-2-yl)-3-fluoro-5,11-dihydro-6H-benzo[b]pyrido[2,3-e][1,4]diazepin-6-yl)((2R,5S)-5-isopropoxytetrahydro-2H-pyran-2-yl)methanone], which IC50 is on record?
The IC50 was 23.4 nM.

CC(C)O[C@H]1CC[C@H](C(=O)N2Cc3cccnc3Nc3cc(F)c(C4COCCO4)cc32)OC1 (stereo partly drawn) [Example 37, (8-(1,4-dioxan-2-yl)-9-fluoro-5,11-dihydro-6H-benzo[b]pyrido[2,3-e][1,4]diazepin-6-yl)((2R,5S)-5-isopropoxytetrahydro-2H-pyran-2-yl)methanone] was tested. Which IC50 did it give?
The IC50 was 36.9 nM.

Which IC50 does the source give for CC(C)O[C@H]1CC[C@H](C(=O)N2Cc3cccnc3Nc3cc(F)c(C4COCCO4)cc32)OC1 (stereo partly drawn) [Example 38, (8-(1,4-dioxan-2-yl)-9-fluoro-5,11-dihydro-6H-benzo[b]pyrido[2,3-e][1,4]diazepin-6-yl)((2R,5S)-5-isopropoxytetrahydro-2H-pyran-2-yl)methanone] here?
The IC50 was 36 nM.

For CO[C@H]1C[C@H]2CC[C@@H](C1)N2c1ccc2c(c1)N(C(=O)[C@H]1CC[C@H](OC(C)C)CO1)Cc1cc(F)cnc1N2 [Example 39, (3-fluoro-8-((1R,3S,5S)-3-methoxy-8-azabicyclo[3.2.1]octan-8-yl)-5,11-dihydro-6H-benzo[b]pyrido[2,3-e][1,4]diazepin-6-yl)((2R,5S)-5-isopropoxytetrahydro-2H-pyran-2-yl)methanone], which IC50 is on record?
Its IC50 is 10.4 nM.

How did the IC50 turn out when CC(C)O[C@H]1CC[C@H](C(=O)N2Cc3cc(F)cnc3Nc3ccc(N4CC5(CCCOC5)C4)cc32)OC1 [Example 40, (3-fluoro-8-(6-oxa-2-azaspiro[3.5]nonan-2-yl)-5,11-dihydro-6H-benzo[b]pyrido[2,3-e][1,4]diazepin-6-yl)((2R,5S)-5-isopropoxytetrahydro-2H-pyran-2-yl)methanone] was run?
The IC50 was 25.5 nM.

With CC(C)O[C@H]1CC[C@H](C(=O)N2Cc3cc(F)cnc3Nc3ccc(N4C[C@H]5COC[C@@H](C4)O5)cc32)OC1 [Example 41, (8-((1R,5S)-3,9-dioxa-7-azabicyclo[3.3.1]nonan-7-yl)-3-fluoro-5,11-dihydro-6H-benzo[b]pyrido[2,3-e][1,4]diazepin-6-yl)((2R,5S)-5-isopropoxytetrahydro-2H-pyran-2-yl)methanone] as the compound, how does the IC50 read?
The IC50 was 21 nM.

CC(C)O[C@H]1CC[C@H](C(=O)N2Cc3cc(F)cnc3Nc3ccc(NCC4(CCl)CCCOC4)cc32)OC1 (stereo partly drawn) [Example 42, (8-(((3-(chloromethyl)tetrahydro-2H-pyran-3-yl)methyl)amino)-3-fluoro-5,11-dihydro-6H-benzo[b]pyrido[2,3-e][1,4]diazepin-6-yl)((2R,5S)-5-isopropoxytetrahydro-2H-pyran-2-yl)methanone] was tested. Which IC50 did it give?
Its IC50 is 13.6 nM.

Which IC50 does the source give for CCS(=O)(=O)N1CCC(C(=O)N2Cc3cc(F)cnc3Nc3ccc(N4CC5CCC4CO5)cc32)CC1 (centres unmarked) [Example 43, (8-(2-oxa-5-azabicyclo[2.2.2]octan-5-yl)-3-fluoro-5,11-dihydro-6H-benzo[b]pyrido[2,3-e][1,4]diazepin-6-yl)(1-(ethylsulfonyl)piperidin-4-yl)methanone] here?
Its IC50 is 87 nM.

With CC(C)O[C@H]1CC[C@H](C(=O)N2Cc3cc(F)cnc3Nc3cc(F)c(N4CC5CCC4CO5)cc32)OC1 (stereo partly drawn) [Example 44, (8-(2-oxa-5-azabicyclo[2.2.2]octan-5-yl)-3,9-difluoro-5,11-dihydro-6H-benzo[b]pyrido[2,3-e][1,4]diazepin-6-yl)((2R,5S)-5-isopropoxytetrahydro-2H-pyran-2-yl)methanone] as the compound, how does the IC50 read?
Its IC50 is 11.4 nM.

CC(C)O[C@H]1CC[C@H](C(=O)N2Cc3cc(F)cnc3Nc3cc(F)c(N4CC5(CCCOC5)C4)cc32)OC1 [Example 45, (3,9-Difluoro-8-(6-oxa-2-azaspiro[3.5]nonan-2-yl)-5H-benzo[b]pyrido[2,3-e][1,4]diazepin-6(11H)-yl)((2R,5S)-5-isopropoxytetrahydro-2H-pyran-2-yl)methanone] was tested. Which IC50 did it give?
The IC50 was 18.3 nM.
